From the NIST ThermoML archive (doi:10.1021/acs.jced.8b01120)
Where “and” joins values, the source holds several entries; their conditions need not be identical. Equal values may be shown once.

Columns and labels:
[1] = 100 kPa, Liquid; for speed of sound: Single path-length method; for mass density: Vibrating tube method
[2] = xn = mol fraction of the nth substance listed; conditions: 100 kPa, Liquid; for speed of sound: Single path-length method; for mass density: Vibrating tube method

CCCOC(C)=O [propyl ethanoate]
[1]
Conditions | mass density [kg/m3] | speed of sound [m/s]
293.15 K | 888.964 | 1190.3
298.15 K | 883.369 | 1164.2
303.15 K | 877.422 | 1145
308.15 K | 871.784 | 1123.7
313.15 K | 866.115 | 1102.3

COC(C)=O [methyl ethanoate] + CCCCN(CCCC)CCCC
[2], x2 = 0
Conditions | mass density [kg/m3] | speed of sound [m/s]
293.15 K | 935.01 | 1180.4
298.15 K | 928.458 | 1157.5
303.15 K | 921.85 | 1134.9
308.15 K | 915.16 | 1109.2
313.15 K | 908.49 | 1089.6

CCCCN(CCCC)CCCC [tributylamine]
[1]
Conditions | mass density | speed of sound [m/s]
293.15 K | 777.01 kg/m3 and 777.006 kg/m3 | 1264.2
298.15 K | 773.283 kg/m3 and 773.28 kg/m3 | 1245.2
303.15 K | 769.55 kg/m3 and 769.552 kg/m3 | 1226.2
308.15 K | 765.81 kg/m3 and 765.811 kg/m3 | 1207.4
313.15 K | 762.06 kg/m3 and 762.061 kg/m3 | 1188.8

CCCOC(C)=O [propyl ethanoate] + CCCCN(CCCC)CCCC
[2], x2 = 0
Conditions | mass density [kg/m3] | speed of sound [m/s]
293.15 K | 888.964 | 1190.3
298.15 K | 883.369 | 1164.2
303.15 K | 877.422 | 1145
308.15 K | 871.784 | 1123.7
313.15 K | 866.115 | 1102.3

COC(C)=O [methyl ethanoate]
[1]
Conditions | mass density [kg/m3] | speed of sound [m/s]
293.15 K | 935.01 | 1180.4
298.15 K | 928.458 | 1157.5
303.15 K | 921.85 | 1134.9
308.15 K | 915.16 | 1109.2
313.15 K | 908.49 | 1089.6

CCCCOC(C)=O [butyl ethanoate] + CCCCN(CCCC)CCCC
[2], x2 = 0
Conditions | mass density [kg/m3] | speed of sound [m/s]
293.15 K | 881.54 | 1211.6
298.15 K | 876.399 | 1191.5
303.15 K | 871.235 | 1172.4
308.15 K | 866.05 | 1153.9
313.15 K | 860.84 | 1131.5

CCOC(C)=O [ethyl acetate]
[1]
Conditions | mass density [kg/m3] | speed of sound [m/s]
293.15 K | 900.882 | 1164.3
298.15 K | 894.79 | 1142.9
303.15 K | 888.656 | 1119.4
308.15 K | 882.475 | 1097.2
313.15 K | 876.247 | 1075

CCCCCOC(C)=O [pentyl ethanoate]
[1]
Conditions | mass density [kg/m3] | speed of sound [m/s]
293.15 K | 876.248 | 1243
298.15 K | 871.32 | 1220.7
303.15 K | 865.782 | 1196.8
308.15 K | 860.581 | 1174.2
313.15 K | 855.357 | 1152.3

CCOC(C)=O [ethyl acetate] + CCCCN(CCCC)CCCC
[2], x2 = 0
Conditions | mass density [kg/m3] | speed of sound [m/s]
293.15 K | 900.882 | 1164.3
298.15 K | 894.79 | 1142.9
303.15 K | 888.656 | 1119.4
308.15 K | 882.475 | 1097.2
313.15 K | 876.247 | 1075

CCCCN(CCCC)CCCC [tributylamine] + CCCCCOC(C)=O
[2], x1 = 1
Conditions | mass density [kg/m3] | speed of sound [m/s]
293.15 K | 777.006 | 1264.2
298.15 K | 773.283 | 1245.2
303.15 K | 769.552 | 1226.2
308.15 K | 765.811 | 1207.4
313.15 K | 762.061 | 1188.8

CCCCOC(C)=O [butyl ethanoate]
[1]
Conditions | mass density [kg/m3] | speed of sound [m/s]
293.15 K | 881.54 | 1211.6
298.15 K | 876.399 | 1191.5
303.15 K | 871.235 | 1172.4
308.15 K | 866.05 | 1153.9
313.15 K | 860.84 | 1131.5
